Source: paper PMC9643456, “Matching amino acids membrane preference profile to improve activity of antimicrobial peptides” (Communications Biology, 2022)
Ends that are not written are not given here.

Experiments:
MDR A. baumannii = assay: microbe, parasite or virus in culture
In short: (§1)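 Broth microdilution per CLSI in cation-adjusted Mueller–Hinton broth with added calcium (50 mg/L) and magnesium (10 mg/L); mid-log bacteria at a final 5 × 10^5 CFU/ml were incubated with peptide for 18 h at 37 °C. MIC was the lowest concentration without visible turbidity, in triplicate.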

MDR E. faecalis = assay: microbe, parasite or virus in culture
In short: as §1

MDR P. aeruginosa = assay: microbe, parasite or virus in culture
In short: as §1

MDR S. aureus = assay: microbe, parasite or virus in culture
In short: as §1

human red blood cells = assay: Hemolytic activity; assay type: cell-based; settings: red cells of human, 18 h
In short: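 Peptides (100 μM down to 0.78 μM) were incubated with 4% final human erythrocytes in PBS for 18 h at 37 °C. Supernatant absorbance at 540 nm after centrifugation was scaled to 1% Triton X-100 (100%) and no peptide (0%); melittin served as positive control; triplicate runs.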

[1] = CAMHB plus 0.2% bovine serum albumin and 0.01% acetic acid, values marked * in Table 2

## WLLLLWRRR-NH2 [AcWL-3]
MDR A. baumannii; [1]
  MIC in 0.2% albumin and 0.01% AcOH added CLSI standard condition, MDR A. baumannii: 0.63 µM
MDR A. baumannii; CLSI broth microdilution, CAMHB with 50 mg/L Ca2+, 10 mg/L Mg2+, 5 × 10^5 CFU/ml, 18 h 37 °C, triplicate, strain ATCC BAA-1605
  Minimum inhibitory concentrations, MDR A. baumannii: 2.5 µM
MDR E. faecalis; [1]
  MIC in 0.2% albumin and 0.01% AcOH added CLSI standard condition, MDR E. faecalis: 2.5 µM
MDR E. faecalis; CLSI broth microdilution, CAMHB with 50 mg/L Ca2+, 10 mg/L Mg2+, 5 × 10^5 CFU/ml, 18 h 37 °C, triplicate, strain ATCC 51575
  Minimum inhibitory concentrations, MDR E. faecalis: 5 µM
MDR P. aeruginosa; [1]
  MIC in 0.2% albumin and 0.01% AcOH added CLSI standard condition, MDR P. aeruginosa: > 20 µM
MDR P. aeruginosa; CLSI broth microdilution, CAMHB with 50 mg/L Ca2+, 10 mg/L Mg2+, 5 × 10^5 CFU/ml, 18 h 37 °C, no visible turbidity, triplicate, strain CCARM 2180
  Minimum inhibitory concentrations, MDR P. aeruginosa: > 20 µM
MDR S. aureus; [1]
  MIC in 0.2% albumin and 0.01% AcOH added CLSI standard condition, MDR S. aureus: 2.5 µM
MDR S. aureus; CLSI broth microdilution, CAMHB with 50 mg/L Ca2+, 10 mg/L Mg2+, 5 × 10^5 CFU/ml, 18 h 37 °C, triplicate, strain KCCM 40510
  Minimum inhibitory concentrations, MDR S. aureus: 5 µM
Human red blood cells; 25
  Hemolysis percent, 25 μM: 16.44 ±0.89%
Human red blood cells; 50
  Hemolysis percent, 50 μM: 19.80 ±0.76%
Human red blood cells; 100
  Hemolysis percent, 100 μM: 36.71 ±3.91%
